Read-outs that look alike come from different tables or passages of the source.
Assays:
Type in all cases: in vivo
H. contortus = assay: Sheep experimentally infected with Haemonchus contortus, percentage clearance (Procedure No. 1); conditions: single sheep per route
Description: In individual experiments all sheep are treated identically, however non-critical variations occur between experiments. All of the sheep used in this procedure are treated twice with levamisole hydrochloride orally at 8 mg/kg or once each with ivermectin parenterally at 200 µg/kg and levamisole hydrochloride orally at 8 mg/kg. The second treatment in each case is administered 4-7 days after the first treatment. Two weeks after the second treatment all sheep are inoculated per os with ∼3,500 to ∼7,500 infective larvae of H. contortus. Rectal fecal samples are taken from each sheep 26-41 days post-inoculation (P.I.), and these samples are examined for eggs of H. contortus using the McMaster counting chamber technique. […] One-three days later on days 27-42 PI each sheep remaining in the study (excluding the nontreated controls) is treated with a test compound (orally or parenterally at 100 mg/kg unless indicated otherwise) or a standard (levamisole hydrochloride orally at 8 mg/kg) or is used as an untreated control. All sheep received food and water ad lib. throughout the experiment. Prior to administration, all solid compounds are finely ground using a mortar and pestle. Oral compounds are suspended in 20-30 ml of sterile vehicle #98 (each ml contains: carboxymethylcellulose = 10 mg, polysorbate80 -4 mg, propylparaben - 0.42 mg) using a sonicator and administered along with a tap water wash via a stomach tube. The parenteral compounds are similarly suspended in 20-30 ml of the sterile vehicle and given by intraperitoneal injecting using a 13 gauge, 2 inch needle and a 50 ml syringe. All test compounds are given to a single sheep/route of administration. Two or more sheep are treated with levamisole hydrochloride and five are used as nontreated controls. All animals are monitored for signs of toxicity following treatment. The sheep are sacrificed 7-12 days after treatment (days 35-49 PI), and the abomasum is ligated and removed from each sheep. Each abomasum is longitudinally sectioned and rinsed into an 80 mesh sieve. Sieve contents are collected in individual containers and fixed in formol-alcohol. Later each sample is transferred to a 1000 or 2000 ml beaker and the volume brought to 400-1000 ml with tap water. The total number of worms in a 40-100 ml aliquot (10%) is determined. When no worms are found in the 10% aliquot, the entire sample is examined. Total worm number/sheep and percentage clearance for each treatment are calculated. Percentage clearance for a particular test compound in a given trial is determined according to the following formula: Percentage Clearance (Test Compound) = [(Mean number of worms recovered from nontreated control sheep - Number of worms recovered from treated sheep)/Mean number of worms recovered from nontreated control sheep] x 100. Sheep which die within 24 hr following treatment are not examined for worms, while any that die between 24 hr post-treatment and necropsy are examined in an identical manner as that described above. The results of various trials are combined and reported in Table I as percentage clearance.

Haemonchus = assay: Sheep naturally infected with helminths, mean percentage clearance of adult worms (Procedure No. 2); conditions: Oral, 100 mg/kg, groups of five
Description: (§1) Parasitized sheep are randomly assigned to groups of five animals based on parasitic burden, sex, and farm origin. Sheep are double ear-tagged, weighed, housed in a barn in community pens, fed hay supplemented with 1/2 lb corn/head/day. Water is given ad lib. Animals are allowed to acclimate for one-two weeks prior to treatment.
(§2) Each group of sheep receives a test compound either orally or parenterally at a dosage rate of 100 mg/kg. A group of sheep is treated with 8 mg/kg of levamisole hydrochloride and another group serves as an untreated control group. Orally administered compounds are suspended in 20-30 ml of sterile vehicle #98 (each ml contains: carboxymethylcellulose - 10 mg, polysorbate80 -4 mg, propylparaben - 0.42 mg) using a sonicator and administered along with a tap water wash via a stomach tube. For parenteral administration, compounds are similarly suspended in 20-30 ml of the sterile vehicle and given by intraperitoneal injection using a 20 gauge, 1 inch needle and a 50 ml syringe. Following treatment, all animals are observed for signs of toxicity.
(§3) The number and classification of helminth eggs per gram of feces (e.p.g.) are determined for each sheep during the acclimation period and in some cases at necropsy. Egg counts are made using the McMaster counting chamber technique and rectal fecal samples. Animals dying during the 24 hours immediately following dosing are not subjected to necropsy. Sheep that die 1-6 days posttreatment are posted and complete worm counts performed. All remaining animals are sacrificed on days 7-8 posttreatment. Each sheep is euthanised and bled out prior to opening the abdominal cavity. Ligatures are placed at the reticuloomasal junction, the pyloric valve, and the ileo-cecal junction. The abomasum and small intestine are freed of fat and mesenteric attachments, longitudinally opened, and their contents placed in individual containers. The mucosal surface of each is washed with tap water, rubbed clean, and rinsed several times. Washings and ingesta for each organ are made up to 1 liter and a 10% aliquot in formalin is stored for later examination. The cecum, large intestine, and colon are freed of mesenteric attachments, each is longitudinally opened, and their contents washed, collected, and made up to 1 liter in 10% formalin. The entire sample is stored. All carcasses are incinerated.
(§4) Ten percent of the total contents collected from the abomasum and small intestine and the entire contents of the large intestine, cecum, and colon are examined under stereoscopic magnification (40X). All worms are identified to genus and in some instances species. Separate adult and larval counts are determined.
(§5) The mean percentage clearance against specific helminths in the test sheep is calculated by subtracting the mean number of helminths observed in the treated sheep at necropsy from the mean number observed in the nontreated controls at necropsy, dividing the remainder by the latter mean number and multiplying by 100. The mean percentage clearances against the various helminths identified in the test sheep are calculated.

Nematodirus = assay: as above; conditions: Oral, 100 mg/kg, groups of five
Description: as §1, §2, §3, §4, §5

Oesophagostomum = assay: as above; conditions: Oral, 100 mg/kg, groups of five
Description: as §1, §2, §3, §4, §5

Ostertagia = assay: as above; conditions: Oral, 100 mg/kg, groups of five
Description: as §1, §2, §3, §4, §5

Trichostrongylus axei = assay: as above; conditions: Oral, 100 mg/kg, groups of five
Description: as §1, §2, §3, §4, §5

[1] = test system: Trichostrongylus colubriformis; assay: as above; conditions: Oral, 100 mg/kg, groups of five
Description: as §1, §2, §3, §4, §5

Trichuris = assay: as above; conditions: Oral, 100 mg/kg, groups of five
Description: as §1, §2, §3, §4, §5

[2] = ip, intraperitoneal administration, read-out: H. contortus %Clearance I.P.
[3] = oral administration, read-out: H. contortus %Clearance P.O.

Row | SMILES | inhibition in vivo at 100 mg/kg (H. contortus; [2]) [%] | inhibition in vivo at 100 mg/kg (H. contortus; [3]) [%] | further results
1 | Cc1cccc(C(=O)NN=Cc2ccc3ccccc3n2)c1 [Compound 4, 3-methylbenzoic acid (2-quinolinylmethyl-ene)hydrazide] | 29.8 | 53.3 | 
2 | CCOC(=O)NN=Cc1ccnc2ccccc12 [Compound 6, ethyl (4-quinolinylmethylene)carbazate] | 61.2 | 82.9 | Percentage Clearance of Adult Worms H. (Haemonchus): 94.1%; Percentage Clearance of Adult Worms N. (Nematodirus): 45.2%; Percentage Clearance of Adult Worms Oes. (Oesophagostomum): 33.3%; Percentage Clearance of Adult Worms Ost. (Ostertagia): 79.4%; Percentage Clearance of Adult Worms T.a. (Trichostrongylus axei): 0%; Percentage Clearance of Adult Worms T.c. [1]: 61.4%; Percentage Clearance of Adult Worms Trich. (Trichuris): 11.1%
3 | O=C(NN=Cc1ccc2ccccc2n1)c1ccccc1 [Compound 8, benozic acid (2-quinolinylmethylene) hydrazide] |  | 33 | 
4 | O=C(NN=Cc1ccc2ccccc2n1)c1cccnc1 [Compound 9] |  | 76.8 | 
5 | O=C(NN=Cc1ccnc2ccccc12)c1ccccc1 [Compound 11] |  | 96.8 | 
6 | NC(=O)NCC(=O)NN=Cc1ccc2ccccc2n1 [Compound 12] |  | 32.9 | 
7 | CCOc1ccc(C(=O)NN=Cc2ccc3ccccc3n2)cc1 [Compound 14] | 0 | 36.8 | 
8 | Cc1ccccc1C(=O)NN=Cc1ccc2ccccc2n1 [Compound 15] | 0 | 32 | 
9 | O=C(NN=Cc1ccnc2ccccc12)c1cccs1 [Compound 16] | 80.1 | 25.2 | 
10 | O=C(NN=Cc1ccc2ccccc2n1)c1cccc(O)c1 [Compound 20] | 20.3 | 0 | 
11 | COc1ccc(C(=O)NN=Cc2ccc3ccccc3n2)cc1 [Compound 22, 4-methoxybenzoic acid (2-quinolinylmethylene)hydrazide] | 14.3 | 0 | 
12 | O=C(NN=Cc1ccc2ccccc2n1)c1cccc([N+](=O)[O-])c1 [Compound 23, 3-nitrobenzoic acid (2-quinolinylmethylene)hydrazide] | 0 | 39.5 | 
13 | COC(=O)NN=Cc1ccnc2ccccc12 [Compound 25, methyl (4-quinolinylmethylene)carbazate] |  | 3.4 | 
14 | O=C(NN=Cc1ccnc2ccccc12)c1ccc(C(F)(F)F)cc1 [Compound 26, 4-trifluoromethylbenzoic acid (4-quinolinylmethylene)hydrazide] | 29 | 40.2 | 
15 | O=C(NN=Cc1ccnc2ccccc12)C1CCC1 [Compound 29, cyclobutanecarboxylic acid (4-quinolinylmethylene)hydrazide] | 88.4 | 99.8 | 
16 | CCC(=O)NN=Cc1cnc2ccccc2c1 [Compound 39] |  | 96.4 | 
17 | O=C(NN=Cc1cnc2ccccc2c1)C1CCCCC1 [Compound 41] |  | 98.2 | 
18 | CC(=O)NN=Cc1cnc2ccccc2c1 [Compound 43] |  | 85.4 | 

Source: patent EP0263209A2, “Anthelmintic quinolinyl acylhydrazones” (THE UPJOHN COMPANY, priority 1986, dated 1988)
